The values that follow are results of earlier work, collected in patent publication US20100069356A1, “DIBENZO[…] DOPAMINE, ALPHA […], AND SEROTONIN RECEPTORS” (AUSPEX PHARMACEUTICALS, INC., priority 2008, published 2010).

The conditions of the data set: in vivo.

For the compound `OCCOCCN1CCN(C2=Nc3ccccc3Sc3ccccc32)CC1` [Quetiapine, 2-(2-(4-dibenzo[b,f][1,4]thiazepine-11-yl-1-piperazinyl)ethoxy)ethanol], the half-life was ~6 h.

As usually defined, the half-life is the time needed for the level to fall by half in the phase considered.
